{"source": "patent US20260262643A1", "about": "“HERBICIDAL BENZOXAZINES” (FMC CORPORATION, priority 2022, published 2026)", "key": {"[1]": {"system": "corn", "experiment": "Test C preemergence", "assay_type": "in vivo, Zea mays", "how_it_was_run": "(§1)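 Test material, in non-phytotoxic solvent with surfactant, was sprayed on the soil directly after seeding (preemergence) or on young plants of 2–10 cm with one to two leaves (postemergence). Greenhouse, 10 days; 0–100 visual control scale.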"}, "[2]": {"system": "wheat", "experiment": "Test C preemergence", "assay_type": "in vivo, Triticum aestivum", "how_it_was_run": "as §1"}, "[3]": {"system": "kochia", "experiment": "Test C postemergence", "assay_type": "in vivo, Bassia scoparia", "conditions": "10 days, 0 to 100 scale (0 no effect, 100 complete control)", "how_it_was_run": "as §1"}, "[4]": {"system": "green foxtail", "experiment": "Test C preemergence", "assay_type": "in vivo, Setaria viridis", "how_it_was_run": "as §1"}, "[5]": {"system": "pigweed, palmer", "experiment": "Test C preemergence", "assay_type": "in vivo, Amaranthus palmeri", "how_it_was_run": "as §1"}, "[6]": {"system": "barnyardgrass", "experiment": "Test C preemergence", "assay_type": "in vivo, Echinochloa crusgalli", "how_it_was_run": "as §1"}, "[7]": {"system": "barnyardgrass", "experiment": "Test C postemergence", "assay_type": "in vivo, Echinochloa crusgalli", "conditions": "10 days, 0 to 100 scale (0 no effect, 100 complete control)", "how_it_was_run": "as §1"}, "[8]": {"system": "ryegrass, Italian", "experiment": "Test C preemergence", "assay_type": "in vivo, Lolium multiflorum", "how_it_was_run": "as §1"}, "[9]": {"system": "blackgrass", "experiment": "Test C preemergence", "assay_type": "in vivo, Alopecurus myosuroides", "how_it_was_run": "as §1"}, "[10]": {"system": "oat, wild", "experiment": "Test C postemergence", "assay_type": "in vivo, Avena fatua", "conditions": "10 days, 0 to 100 scale (0 no effect, 100 complete control)", "how_it_was_run": "as §1"}, "[11]": {"system": "rice", "experiment": "Test D flooded paddy test", "assay_type": "in vivo, Oryza sativa", "conditions": "250 g ai/ha, applied to paddy water, visual rating after 13 to 14 days, scale 0 to 100 (0 no effect, 100 complete control)", "how_it_was_run": "(§2)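 Post-flood water application at the 2-leaf stage; 3 cm flood depth kept constant; visual control rating 0–100 after 13–14 days greenhouse growth.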"}, "[12]": {"system": "soybean", "experiment": "Test C postemergence", "assay_type": "in vivo, Glycine max", "conditions": "Postemergence, 125 g ai/ha; 0 to 100 scale (0 no effect, 100 complete control), 10 days", "how_it_was_run": "as §1"}, "[13]": {"system": "blackgrass", "experiment": "Test C postemergence", "assay_type": "in vivo, Alopecurus myosuroides", "conditions": "10 days, 0 to 100 scale (0 no effect, 100 complete control)", "how_it_was_run": "as §1"}, "[14]": {"system": "kochia", "experiment": "Test C preemergence", "assay_type": "in vivo, Bassia scoparia", "how_it_was_run": "as §1"}, "[15]": {"system": "pigweed, palmer", "experiment": "Test C postemergence", "assay_type": "in vivo, Amaranthus palmeri", "conditions": "10 days, 0 to 100 scale (0 no effect, 100 complete control)", "how_it_was_run": "as §1"}, "[16]": {"system": "corn", "experiment": "Test C postemergence", "assay_type": "in vivo, Zea mays", "conditions": "10 days, 0 to 100 scale (0 no effect, 100 complete control)", "how_it_was_run": "as §1"}, "[17]": {"system": "ragweed", "experiment": "Test C preemergence", "assay_type": "in vivo, Ambrosia artemisiifolia", "how_it_was_run": "as §1"}, "[18]": {"system": "green foxtail", "experiment": "Test C postemergence", "assay_type": "in vivo, Setaria viridis", "conditions": "10 days, 0 to 100 scale (0 no effect, 100 complete control)", "how_it_was_run": "as §1"}, "[19]": {"system": "soybean", "experiment": "Test C preemergence", "assay_type": "in vivo, Glycine max", "how_it_was_run": "as §1"}, "[20]": {"system": "ryegrass, Italian", "experiment": "Test C postemergence", "assay_type": "in vivo, Lolium multiflorum", "conditions": "Postemergence, 125 g ai/ha; 0 to 100 scale (0 no effect, 100 complete control), 10 days", "how_it_was_run": "as §1"}, "[21]": {"system": "barnyardgrass", "experiment": "Test D flooded paddy test", "assay_type": "in vivo, Echinochloa crus-galli", "conditions": "250 g ai/ha, applied to paddy water, visual rating after 13 to 14 days, scale 0 to 100 (0 no effect, 100 complete control)", "how_it_was_run": "as §2"}, "[22]": {"system": "wheat", "experiment": "Test C postemergence", "assay_type": "in vivo, Triticum aestivum", "conditions": "Postemergence, 125 g ai/ha; 0 to 100 scale (0 no effect, 100 complete control), 10 days", "how_it_was_run": "as §1"}, "[23]": {"system": "sedge, umbrella", "experiment": "Test D flooded paddy test", "assay_type": "in vivo, Cyperus difformis", "conditions": "250 g ai/ha, applied to paddy water, visual rating after 13 to 14 days, scale 0 to 100 (0 no effect, 100 complete control)", "how_it_was_run": "as §2"}, "[24]": {"system": "horseweed", "experiment": "Test C postemergence", "assay_type": "in vivo, Erigeron canadensis", "conditions": "10 days, 0 to 100 scale (0 no effect, 100 complete control)", "how_it_was_run": "as §1"}, "[25]": {"system": "oat, wild", "experiment": "Test C preemergence", "assay_type": "in vivo, Avena fatua", "how_it_was_run": "as §1"}, "[26]": {"system": "ducksalad", "experiment": "Test D flooded paddy test", "assay_type": "in vivo, Heteranthera limosa", "conditions": "250 g ai/ha, applied to paddy water, visual rating after 13 to 14 days, scale 0 to 100 (0 no effect, 100 complete control)", "how_it_was_run": "as §2"}, "[27]": {"system": "ragweed", "experiment": "Test C postemergence", "assay_type": "in vivo, Ambrosia artemisiifolia", "conditions": "Postemergence, 125 g ai/ha; 0 to 100 scale (0 no effect, 100 complete control), 10 days", "how_it_was_run": "as §1"}, "[28]": {"conditions": "500 g ai/ha, preemergence, 0 to 100 scale (0 no effect, 100 complete control)"}, "[29]": {"conditions": "Preemergence, 125 g ai/ha, 0 to 100 scale, 0 no effect, 100 complete control"}}}
{"compound": "Cc1ccc(-n2cnc(C(C)(C)C#N)n2)cc1C(=O)N1C[C@H](C)Oc2c(Cl)cccc21", "note": "[Compound 397]", "values": [{"measurement": "Corn plant response rating", "setting": "[1]; [28]", "result": 20}, {"measurement": "Plant response rating, Corn", "setting": "[1]; [29]", "result": 10}, {"measurement": "Wheat plant response rating", "setting": "[2]; [28]", "result": 30}, {"measurement": "Plant response rating, Wheat", "setting": "[2]; [29]", "result": 10}, {"measurement": "Plant response rating, Kochia", "setting": "[3]; 500 g ai/ha, postemergence", "result": 100}, {"measurement": "Plant response rating, Kochia", "setting": "[3]; Postemergence, 125 g ai/ha", "result": 90}, {"measurement": "Foxtail, Green plant response rating", "setting": "[4]; [28]", "result": 100}, {"measurement": "Plant response rating, Foxtail, Green", "setting": "[4]; [29]", "result": 100}, {"measurement": "Pigweed, Palmer plant response rating", "setting": "[5]; [28]", "result": 100}, {"measurement": "Plant response rating, Pigweed, Palmer", "setting": "[5]; [29]", "result": 100}, {"measurement": "Barnyardgrass plant response rating", "setting": "[6]; [28]", "result": 100}, {"measurement": "Plant response rating, Barnyardgrass", "setting": "[6]; [29]", "result": 90}, {"measurement": "Plant response rating, Barnyardgrass", "setting": "[7]; 500 g ai/ha, postemergence", "result": 60}, {"measurement": "Plant response rating, Barnyardgrass", "setting": "[7]; Postemergence, 125 g ai/ha", "result": 40}, {"measurement": "Ryegrass, Italian plant response rating", "setting": "[8]; [28]", "result": 90}, {"measurement": "Plant response rating, Ryegrass, Italian", "setting": "[8]; [29]", "result": 80}, {"measurement": "Blackgrass plant response rating", "setting": "[9]; [28]", "result": 90}, {"measurement": "Plant response rating, Blackgrass", "setting": "[9]; [29]", "result": 70}, {"measurement": "Plant response rating, Oat, Wild", "setting": "[10]; 500 g ai/ha, postemergence", "result": 70}, {"measurement": "Plant response rating, Oat, Wild", "setting": "[10]; Postemergence, 125 g ai/ha", "result": 20}, {"measurement": "Plant response rating, Rice (Flood)", "setting": "[11]", "result": 15}, {"measurement": "Plant response rating, Soybean", "setting": "[12]", "result": 50}, {"measurement": "Plant response rating, Blackgrass", "setting": "[13]; 500 g ai/ha, postemergence", "result": 90}, {"measurement": "Plant response rating, Blackgrass", "setting": "[13]; Postemergence, 125 g ai/ha", "result": 80}, {"measurement": "Kochia plant response rating", "setting": "[14]; [28]", "result": 100}, {"measurement": "Plant response rating, Kochia", "setting": "[14]; [29]", "result": 90}, {"measurement": "Plant response rating, Pigweed, Palmer", "setting": "[15]; 500 g ai/ha, postemergence", "result": 100}, {"measurement": "Plant response rating, Pigweed, Palmer", "setting": "[15]; Postemergence, 125 g ai/ha", "result": 100}, {"measurement": "Plant response rating, Corn", "setting": "[16]; 500 g ai/ha, postemergence", "result": 70}, {"measurement": "Plant response rating, Corn", "setting": "[16]; Postemergence, 125 g ai/ha", "result": 70}, {"measurement": "Ragweed plant response rating", "setting": "[17]; [28]", "result": 80}, {"measurement": "Plant response rating, Ragweed", "setting": "[17]; [29]", "result": 50}, {"measurement": "Plant response rating, Foxtail, Green", "setting": "[18]; 500 g ai/ha, postemergence", "result": 90}, {"measurement": "Plant response rating, Foxtail, Green", "setting": "[18]; Postemergence, 125 g ai/ha", "result": 90}, {"measurement": "Soybean plant response rating", "setting": "[19]; [28]", "result": 100}, {"measurement": "Plant response rating, Soybean", "setting": "[19]; [29]", "result": 70}, {"measurement": "Plant response rating, Ryegrass, Italian", "setting": "[20]", "result": 50}, {"measurement": "Plant response rating, Barnyardgrass (Flood)", "setting": "[21]", "result": 50}, {"measurement": "Plant response rating, Wheat", "setting": "[22]", "result": 20}, {"measurement": "Plant response rating, Sedge, Umbrella (Flood)", "setting": "[23]", "result": 45}, {"measurement": "Plant response rating, Horseweed", "setting": "[24]; 500 g ai/ha, postemergence", "result": 80}, {"measurement": "Plant response rating, Horseweed", "setting": "[24]; Postemergence, 125 g ai/ha", "result": 40}, {"measurement": "Oat, Wild plant response rating", "setting": "[25]; [28]", "result": 90}, {"measurement": "Plant response rating, Oat, Wild", "setting": "[25]; [29]", "result": 60}, {"measurement": "Plant response rating, Ducksalad (Flood)", "setting": "[26]", "result": 10}, {"measurement": "Plant response rating, Ragweed", "setting": "[27]", "result": 100}]}
